# Results reported in patent US20150305333A1, “USE OF GLUCOSAMINE AMIDES AS PLANT GROWTH AND YIELD ENHANCERS” (PIONEER HI-BRED INTERNATIONAL, INC., priority 2012, published 2015).
# Tests used:
# Format in all cases: in vivo
# [1] = test system: Spring barley (Hordeum vulgare); test: Spring barley field trial 2010: emergence, height, yield; settings: for Barley Yield: entire plot harvested
# Description: A field trial was conducted to evaluate the effects of NPG on plant emergence, height, and yield in Spring barley (Hordeum vulgare) planted near Thorndale, Ontario, Canada, in 2010. Seed treatments included an Untreated Control, three concentrations of NPG, and three concentrations of a natural LCO. The natural LCO was provided by Dr. Don Smith (McGill University, Montreal, Canada) and prepared as described in Example 2. Aqueous solutions of NPG and LCO were applied at 10^−6 M, 10^−7 M and 10^−8M to barley seed using a spray nozzle and left to soak on a plastic sheet for 20 minutes. The seeds were beginning to emerge when they were planted on June 8th in a loam composed of 41% sand, 39% silt and 20% clay and 4.5% organic matter.
# Barley was planted at a rate of 100 kg seed/ha to a depth of 2.5 cm. Weeds were controlled using 770 mL/ha 8.79 wt % fenoxprop-P-ethyl, and a mixture of 33.33 wt % thifensulfuron methyl and 16.67 wt % tribenuron methyl at a rate of 30 g/ha. Disease was controlled with 23.6 wt % pyraclostrobin at a rate of 0.4 L/ha. All of the products are industry standards and representative of what is used in commercial production.
# The trial was conducted using a randomized complete block design with a plot size of 2 m by 8 m with a 17.8 cm row spacing, 3.3 cm plant spacing and four replications
# Yield was determined by harvesting the entire plot and transforming the data to kg/ha (Table 10). Yields are not corrected for differences in emergence rates. […] It is noteworthy, however, that yield benefits may be difficult to accurately determine with the small plots used in this study.
# [2] = test system: AC Metcalf spring barley (Hordeum vulgare); test: Spring barley field trial 2011: emergence, vigor, tillering; settings: for Barley Crop Vigor (1-5 scale): vigor scale of Example 3; for Barley Plant Tillers: 24 DAP
# Description: A spring barley field trial was conducted to evaluate the effects of NPG on plant emergence and vigor in AC Metcalf spring barley (Hordeum vulgare) planted near Wetaskiwin, Alberta, Canada, in 2011. Seed treatments included an Untreated Control, 10^−7 M NPG seed coating, 10^−7 M NPG seed coating followed by an NPG foliar treatment (10^−7 M NPG+Foliar), 10^−6 M natural LCO, and 10^−6 M commercial LCO plus a commercial rhizobia inoculant (LCO+RI) applied as a seed coating. The natural LCO was provided by Dr. Don Smith (McGill University, Montreal, Canada) and prepared as described in Example 2.
# Seed coating was performed by injecting 7 mL of aqueous NPG solution per 100 g barley seed into the coating machine followed by treatment and drying. […] Foliar NPG was applied 47 days after planting. Plants were sprayed using a four-nozzle hollow-cone boom and CO2 propellant at a speed of 10.8 km/h and 40 psi, with a mix size of 1.0 L and spray rate of 110 L/ha water volume. Seeds designated for use as the Untreated Control also received the fungicide maintenance treatment.
# Treated seeds were sent to the DuPont Wetaskiwin, Alberta, Canada, Research Station and planted on May 19th in a loam composed of 29% sand, 46% silt and 25% clay and 4.8% organic matter. […] Barley was planted at a rate of 100 kg seeds/ha to a depth of 2.5 cm. Weeds were controlled using 60 grams ai/ha pinoxaden, 30 grams/ha thifensulfuron methyl, and 280 grams ai/ha 4-chloro-2-methylphenox acetic acid, 2-ethylhexyl ester. Adigor surfactant was used at a rate of 700 ml/hectare. All of the products used are considered industry standards and representative of what is used in commercial production.
# The trial was conducted using a randomized complete block design with a plot size of 2 m by 6 m with 22.9 cm row spacing, 3.3 cm plant spacing and four replications. Height and yield data was not collected in this trial due to a large hailstorm on Jul. 18, 2011.
# Crop vigor was observed 11 and 14 days DAP using the vigor scale described in Example 3 (Table 12).
# [3] = test system: corn seeds; test: Petri dish seed germination assay, corn
# Description: A series of Petri dish seed assays was conducted to evaluate the effects NPG on the seed germination rates of corn, soybean, and canola seeds subjected to cold stress, salt stress and non-stressed conditions (salt stress only for canola). Assays were performed with ten replications of ten seeds/plate (100 total seeds). NPG was applied to seeds at the specified concentrations prior to being placed in Petri plates. Seeds designated for Salt Stress Experiments 1 & 2 were placed in Petri dishes containing a 100 mM NaCl solution and incubated at 21° C.-22° C. in the dark. Cold stress Petri dishes were incubated at 15° C. in the dark. Untreated Controls were incubated at 21° C.-22° C. in the dark as were seeds utilized in the separately conducted non-stressed germination assays. Data was recorded as percent germination at designated times after plating. Statistical analyses were performed using one-way Anova and Kruskal-Wallis one-way analysis of variance on rank combined with Dunn's all pairwise multiple comparison procedure (α=0.05).
# [4] = 10^−7M seed coating + Foliar, 11 DAP
# [5] = 10^−7M seed coating + Foliar, 14 DAP
structure (smiles),measurement,setting,value
"CCCCCCC=CCCCCCCCC(=O)NC1C(OC)OC(CO)C(O)C1O [NPG, Methyl 2-deoxy-2-N-(hexadece-9,10-cis-eneoyl)-β-D-glucopyranoside]",Barley Emergence,"[1]; 10^−6M seed treatment, 7 DAP",85a %
same,Barley Plant Height,"[1]; 10^−6M seed treatment, 7 DAP",5.8a cm
same,Barley Emergence,"[1]; 10^−6M seed treatment, 15 DAP",88ab %
same,Barley Plant Height,"[1]; 10^−6M seed treatment, 15 DAP",12ab cm
same,Barley Emergence,"[1]; 10^−6M seed treatment, 43 DAP",19a %
same,Barley Plant Height,"[1]; 10^−6M seed treatment, 43 DAP",71a cm
same,Barley Yield,[1]; 10^−6M seed treatment,3184 Kg/Hectare
same,Barley Emergence,"[1]; 10^−7M seed treatment, 7 DAP",86a %
same,Barley Plant Height,"[1]; 10^−7M seed treatment, 7 DAP",5.5ab cm
same,Barley Emergence,"[1]; 10^−7M seed treatment, 15 DAP",91a %
same,Barley Plant Height,"[1]; 10^−7M seed treatment, 15 DAP",14a cm
same,Barley Emergence,"[1]; 10^−7M seed treatment, 43 DAP",30a %
same,Barley Plant Height,"[1]; 10^−7M seed treatment, 43 DAP",71a cm
same,Barley Yield,[1]; 10^−7M seed treatment,2504 Kg/Hectare
same,Barley Emergence,"[1]; 10^−8M seed treatment, 7 DAP",83a %
same,Barley Plant Height,"[1]; 10^−8M seed treatment, 7 DAP",5.6a cm
same,Barley Emergence,"[1]; 10^−8M seed treatment, 15 DAP",86ab %
same,Barley Plant Height,"[1]; 10^−8M seed treatment, 15 DAP",13a cm
same,Barley Emergence,"[1]; 10^−8M seed treatment, 43 DAP",25a %
same,Barley Plant Height,"[1]; 10^−8M seed treatment, 43 DAP",72a cm
same,Barley Yield,[1]; 10^−8M seed treatment,3043 Kg/Hectare
same,Barley Crop Emergence,[2]; [4],25a plants/m row
same,Barley Crop Vigor (1-5 scale),[2]; [4],3a
same,Barley Crop Emergence,[2]; [5],31.8a plants/m row
same,Barley Crop Vigor (1-5 scale),[2]; [5],4a
same,Barley Plant Tillers,[2]; 10^−7M seed coating + Foliar,95a %
same,Barley Crop Emergence,"[2]; 10^−7M seed coating, 11 DAP",22.5a plants/m row
same,Barley Crop Vigor (1-5 scale),"[2]; 10^−7M seed coating, 11 DAP",3a
same,Barley Crop Emergence,"[2]; 10^−7M seed coating, 14 DAP",27.4a plants/m row
same,Barley Crop Vigor (1-5 scale),"[2]; 10^−7M seed coating, 14 DAP",4a
same,Barley Plant Tillers,[2]; 10^−7M seed coating,83a %
same,Corn Seed Germination,"[3]; Cold Stress (15° C.), 10^−6M, 48 HAP",13ab %
same,Corn Seed Germination,"[3]; Cold Stress (15° C.), 10^−6M, 56 HAP",52a %
same,Corn Seed Germination,"[3]; Cold Stress (15° C.), 10^−6M, 65 HAP",100%
same,Corn Seed Germination,"[3]; Cold Stress (15° C.), 10^−7M, 48 HAP",20ab %
same,Corn Seed Germination,"[3]; Cold Stress (15° C.), 10^−7M, 56 HAP",52a %
same,Corn Seed Germination,"[3]; Cold Stress (15° C.), 10^−7M, 65 HAP",100%
same,Corn Seed Germination,"[3]; Non-Stressed, 10^−6M, 28 HAP",34a %
same,Corn Seed Germination,"[3]; Non-Stressed, 10^−6M, 34 HAP",80a %
same,Corn Seed Germination,"[3]; Non-Stressed, 10^−6M, 44 HAP",100a %
same,Corn Seed Germination,"[3]; Salt Stress (100 mM NaCl) Experiment 2, 10^−6M, 32 HAP",20b %
same,Corn Seed Germination,"[3]; Salt Stress (100 mM NaCl) Experiment 2, 10^−6M, 42 HAP",90a %
same,Corn Seed Germination,"[3]; Salt Stress (100 mM NaCl) Experiment 2, 10^−7M, 32 HAP",44a %
same,Corn Seed Germination,"[3]; Salt Stress (100 mM NaCl) Experiment 2, 10^−7M, 42 HAP",87a %
